Measured values published in patent US20230099229A1, “METHODS OF TREATING MULTIPLE SCLEROSIS” (REPRISE PHARMACEUTICALS, INC., priority 2020, published 2023).
Where a name gives a salt, the structure may show the parent alone.

Test system: Experimental allergic encephalitis (EAE) in female C57BL/6 mice
Test: EAE model in C57BL/6 mice, daily neurological clinical score (Example 2)
Type: in vivo, mouse
Conditions: C57BL/6 mice treated from clinical score 2 for 28 days; DMF 15 mg/kg BID, GCZ 5 mg/kg BID, alone or combined; compared to vehicle control and single agents
Procedure: Experimental allergic encephalitis (EAE) is induced in female C57BL/6 mice (10 weeks old) by subcutaneous injection in the flank regions (left and right sides) with 200 μl total of an emulsion of MOG35-55 peptide (200 μg in 100 μl phosphate buffered saline plus 100 μl of complete Freund's adjuvant containing […] of heat-inactivated Mycobacterium tuberculosis). Each mouse then receives 200 ng of pertussis toxin intraperitoneally (IP) on the day of immunization (day 0) and then again 48 h later (day 2). Neurological assessments are reported using a five-point standardized rating scale to evaluate motor deficit: 0, no deficit; 1, tail paralysis; 2, unilateral hind limb weakness; 3, incomplete bilateral hind limb paralysis and/or partial forelimb weakness; 4, complete hind limb paralysis and partial forelimb weakness; 5, moribund state or death.
The DMF is prepared as a suspension (15 mg/ml) in 0.8% hydroxypropyl methylcellulose (HPMC) weekly and kept at 4° C. under constant stirring. DMF is diluted into 200 μl HPMC, corresponding to a dose of 15 mg/kg body weight, and is administered twice daily (30 mg/kg/day) by oral gavage through a bulb-tipped curved gastric gavage needle by trained operators.
Experimental allergic encephalitis (EAE) was induced in female C57BL/6 mice as described in Example 1. […]

| Compound | EAE clinical scores (five-point motor deficit scale 0-5), fitted regression curves |
| --- | --- |
| COC(=O)/C=C/C(=O)OC [DMF, dimethyl fumarate] | no observed difference |
| Cc1ccc(S(=O)(=O)NC(=O)NN2CC3CCCC3C2)cc1 (centres unmarked) [GCZ, gliclazide] | no observed difference |
